Here are results for 22 molecules from publication PMC6562952, “Experimental and Computational Study to Reveal the Potential of Non-Polar Constituents from Hizikia fusiformis as Dual Protein Tyrosine Phosphatase 1B and α-Glucosidase Inhibitors” (Marine Drugs, 2019).

SMILES strings stand for the structures. Where two headings read alike, the source gives them in different places.

For test [1], the target named is T1, truncated form of human recombinant PTP1B (amino acid 1-322) (Homo sapiens, UniProt P18031).
T1 sequence (P18031 1-322): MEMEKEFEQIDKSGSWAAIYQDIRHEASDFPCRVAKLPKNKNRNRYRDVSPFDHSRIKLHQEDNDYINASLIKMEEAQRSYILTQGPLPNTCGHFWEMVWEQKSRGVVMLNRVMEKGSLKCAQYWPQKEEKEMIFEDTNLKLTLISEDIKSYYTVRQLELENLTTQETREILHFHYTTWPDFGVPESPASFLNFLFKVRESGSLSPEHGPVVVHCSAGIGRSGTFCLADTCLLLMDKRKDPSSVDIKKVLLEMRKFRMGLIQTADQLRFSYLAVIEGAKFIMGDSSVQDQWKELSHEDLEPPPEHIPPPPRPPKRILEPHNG
The experiment in a line: In vitro PTP1B inhibitory activity assay (pNPP substrate). The note with it: for IC50: mean ± SD of triplicate experiments, pNPP substrate.
Experimental: A truncated form of human recombinant PTP1B (amino acid 1-322) was purchased from Enzo Life Sciences (Farmingdale, NY, USA) and dithiothreitol (DTT) was purchased from Bio-Rad Laboratories (Hercules, CA, USA). All other chemicals and solvents were purchased from E. Merck, Fluka, and Sigma-Aldrich, unless otherwise stated.
The inhibitory activity of isolated compounds against truncated form of human recombinant PTP1B was evaluated using pNPP as a substrate [48]. The amount of p-nitrophenyl produced after enzymatic dephosphorylation of pNPP was estimated by measuring the absorbance at 405 nm using a micro-plate spectrophotometer (Molecular Devices, Sunnyvale, CA, USA).

For another test, the target named is Yeast α-glucosidase. Description: In vitro α-glucosidase inhibitory activity assay. It counts as biochemical. The note with it: for IC50: mean ± SD of triplicate experiments; for α-glucosidase inhibitory activity (in words): under the tested concentration. As to the method: Enzyme inhibition studies were carried out spectrophotometrically in a 96-well micro-plate reader using a procedure reported by Li et al..

The target of test [2] is T2, PTP1B (Homo sapiens, UniProt P18031).
T2 sequence (P18031 1-322): T1 sequence (P18031 1-322)
The experiment in a line: Enzyme kinetic analysis towards PTP1B (Lineweaver-Burk plot and secondary plots). It counts as biochemical. The procedure:
The inhibition constant (Ki) and inhibition mode for the inhibition of PTP1B was calculated by the Lineweaver-Burk plot and its secondary plot of the slope and the y-intercept of compounds [49, 50]. […] Graphs were generated using SigmaPlot 12.0 (Systat Software Inc., San Jose, CA, USA).

In test [3] the test system is PTP1B. The note with it: in vitro; cited from earlier work.
In test [4] the test system is insulin-resistant HepG2 cells. The note with it: cited from earlier work.
Test [5] has as its system streptozotocin-induced Sprague-Dawley rats. The note with it: fucosterol from Pelvetia siliquosa; cited from earlier work.

Broadly, the IC50 is the concentration at which inhibition is half-maximal. As to `CC1(C)CC2CC(C)(O2)/C1=C/C(=O)O` (stereo not drawn) [Compound 17, madhusic acid A], the values for the IC50 (in test [1] (read-out: IC50 PTP1B); against Yeast α-glucosidase) were > 400 µM and > 300 µM, respectively.
As for `NCCc1ccc(O)cc1` [Compound 21, tyramine], the IC50 in test [1] (IC50 PTP1B) stood at 188 ± 3.21 µM; on Yeast α-glucosidase, 273 ± 5.65 µM.
Take `COC(=O)C1OC(OC2CCC3(C)C(CCC4(C)C3C(=O)C=C3C5CC(C)(C(=O)O)CCC5(C)CCC34C)C2(C)C)C(OC2OC(C(=O)O)C(O)C(O)C2O)C(O)C1O` [Compound 19, 18β-glycyrrhetinic acid-3-O-β-D-glucuronopyranosyl-1(→2)-β-D-glucuronide-6’-methyl ester]: the “times stronger PTP1B inhibition than compound 18” value in test [1] (ratio of IC50 versus glycyrrhizin (18)) was determined as 2.2 times. On Yeast α-glucosidase, the IC50 is > 150 µM and the “α-glucosidase inhibitory activity (in words)” value was “no activity”.
For `CC/C=C\C/C=C\C/C=C\CCCCCCC(=O)O` [Compound 7, (8Z,11Z,14Z)-heptadeca-8,11,14-trienoic acid], the IC50 in test [1] (IC50 PTP1B) is 4.86 ± 1.36 µM; against Yeast α-glucosidase, > 200 µM.
Regarding `CC/C=C\C/C=C\C/C=C\CCCCCCC(=O)O` [Compound 12, (8Z,11Z,14Z)-heptadeca-8,11,14-trienoic acid], the IC50 in test [1] (IC50 PTP1B) worked out at 11.5 ± 0.52 µM; at Yeast α-glucosidase it was 43.9 ± 0.77 µM.
Turning to `CC(C)C1(CC[C@@H](C)[C@H]2CCC3C4CC=C5C[C@@H](O)CC[C@]5(C)C4CC[C@@]32C)OC1C` (mixture of isomers) [Compound 6, 24R,28R and 24S,28R-epoxy-24-ethylcholesterol], the “Enzyme Kinetics Inhibition Type (PTP1B)” value at PTP1B [2] is given as “Non-competitive”. The IC50 in test [1] (IC50 PTP1B) was 16.7 ± 0.36 µM; against Yeast α-glucosidase, > 150 µM. Moreover, in test [1] (ratio of IC50 versus fucosterol (5)), the “times stronger PTP1B inhibitory activity than 5” value amounted to 3 times.
For the molecule `CC1(C)[C@@H](O)CC[C@]2(C)[C@H]3C(=O)C=C4[C@H]5C[C@@](C)(C(=O)O)CC[C@]5(C)CC[C@@]4(C)[C@]3(C)CC[C@@H]12` [Compound 22, 18α-glycyrrhetinic acid], on PTP1B [2], the “Enzyme Kinetics Inhibition Type (PTP1B)” value was “Competitive”. On Yeast α-glucosidase, this molecule displayed an IC50 of 113.3 ± 0.7 µM.
The corresponding values for `CC1(C)C2CC[C@]3(C)[C@H](C(=O)C=C4[C@@H]5C[C@@](C)(C(=O)O)CC[C@]5(C)CC[C@]43C)[C@@]2(C)CC[C@@H]1O` (stereo partly drawn) [Compound 23, 18β-glycyrrhetinic acid] are “Competitive” and 129 ± 3.88 µM.
With `CCC/C=C\CCCCCCCCCCC(=O)O` [Compound 1, (Z)-hexadec-12-enoic acid], the concentration for half-maximal inhibition (IC50) was 6.59 ± 0.09 µM in test [1] (IC50 PTP1B) and 48.1 ± 3.37 µM against Yeast α-glucosidase.
Turning to `CCCCCCCCCCCCCCCC(=O)O` [Compound 2, palmitic acid], the figures for the IC50 (in test [1] (IC50 PTP1B); against Yeast α-glucosidase) were 49.4 ± 1.39 µM and 93.6 ± 3.68 µM, respectively.
As to `CCCCCCCC/C=C\CCCCCCCC(=O)O` [Compound 3, (Z)-octaec-9-enoic acid], the IC50 in test [1] (IC50 PTP1B) was found to be 13.7 ± 0.49 µM; against Yeast α-glucosidase, 113 ± 2.47 µM.
Take `C=CC(O)(CCC(C)C1CCC2C3CC=C4CC(O)CCC4(C)C3CCC12C)C(C)C` (stereo not drawn) [Compound 4, 24R and 24S-saringosterol]: the half-maximal inhibitory concentration (IC50) (in test [1] (IC50 PTP1B); on Yeast α-glucosidase) was > 150 µM in each case. In addition, in test [1] (under the tested concentration), the “PTP1B inhibitory activity (in words)” value is “no activity”.
For the molecule `CC(=O)C=C=C1C(C)(C)CC(OC(C)=O)CC1(C)O` [Compound 20, (3R)-4-[(2R,4S)-4-acetoxy-2-hydroxy-2,6,6-trimethylcyclohexylidene]but-3-en-2-one], the IC50 in test [1] (IC50 PTP1B) is 323.2 ± 0.84 µM; at Yeast α-glucosidase, > 250 µM.
In the case of `CC1(C)[C@@H](O[C@H]2O[C@H](C(=O)O)[C@@H](O)[C@H](O)[C@H]2O[C@@H]2O[C@H](C(=O)O)[C@@H](O)[C@H](O)[C@H]2O)CC[C@]2(C)[C@H]3C(=O)C=C4[C@@H]5C[C@@](C)(C(=O)O)CC[C@]5(C)CC[C@@]4(C)[C@]3(C)CC[C@@H]12` [Compound 18, 18β-glycyrrhetinic acid-3-O-β-D-glucuronopyranosyl-1(→2)-β-D-glucuronide], the half-inhibitory concentration (IC50) in test [1] (IC50 PTP1B) was 110.3 ± 0.39 µM. Further, at Yeast α-glucosidase, the IC50 was > 150 µM and the “α-glucosidase inhibitory activity (in words)” value is “no activity”.
In the case of `COc1cc(C(O)C(CO)Oc2ccc(CCCO)cc2O)ccc1O` (stereo not drawn) [Compound 15, 1-(4-hydroxy-3-methoxyphenyl)-2-[2-hydroxy-4-(3-hydroxypropyl)phenoxy]-1,3-propanediol], the values for the IC50 (in test [1] (IC50 PTP1B); at Yeast α-glucosidase) were > 400 µM and > 250 µM, respectively.
Consider `COc1cc([C@H]2Oc3c(O)cc(CCCO)cc3[C@@H]2CO)ccc1O` [Compound 14, cedrusin], for which the IC50 in test [1] (IC50 PTP1B) came to 174 ± 5.44 µM; on Yeast α-glucosidase it was 134 ± 3.86 µM.
The corresponding values for `OCC1OC(OCc2ccccc2)C(O)C(O)C1O` (stereo not drawn) [Compound 16, benzyl alcohol alloside] are > 400 µM and > 250 µM.
For `CCCCCC\C=C/C=C\C=C/C=C\CCCCCC(=O)O` [Compound 9, (7Z,9Z,11Z,13Z)-icosa-7,9,11,13-tetraenoic acid], in that order: 10.7 ± 0.17 µM and 34.9 ± 2.39 µM.
Take `CCCC/C=C\C/C=C\C/C=C\CCCCCC(=O)O` [Compound 8, (7Z,10Z,13Z)-octadeca-7,10,13-trienoic acid]: the results for the IC50 (in test [1] (IC50 PTP1B); on Yeast α-glucosidase) were 13.58 ± 0.1 µM and 112 ± 1.44 µM, respectively.
Regarding `CC/C=C\C/C=C\C/C=C\C/C=C\CCCCC(=O)O` [Compound 10, (6Z,9Z,12Z,15Z)-octadeca-6,9,12,15-tetraenoic acid], the concentration for half-maximal inhibition (IC50) is 16.43 ± 0.07 µM in test [1] (IC50 PTP1B) and > 200 µM on Yeast α-glucosidase.
For `C=C(COC(=O)CCCCCC(=O)OCC(O)COC(=O)CCC/C=C\C/C=C\C/C=C\CCCCCCCC)C(=O)O` (stereo not drawn) [Compound 13, 2-(7′-(2″-hydroxy-3″-((5Z,8Z,11Z)-icosatrienoyloxy)propoxy)-7′-oxoheptanoyl)oxymethylpropenoic acid], the “Enzyme Kinetics Inhibition Type (PTP1B)” value on PTP1B [2] was “Non-competitive”. In addition, the IC50 in test [1] (IC50 PTP1B) was 4.92 ± 0.01 µM; against Yeast α-glucosidase, > 150 µM.
As to `C/C=C(\CC[C@@H](C)[C@H]1CC[C@H]2[C@@H]3CC=C4C[C@@H](O)CC[C@]4(C)[C@H]3CC[C@]12C)C(C)C` [Compound 5, fucosterol], at PTP1B [2], the “Enzyme Kinetics Inhibition Type (PTP1B)” value is recorded as “non-competitive”. Moreover, the “PTP1B inhibition type (literature)” value in the test with PTP1B [3] is reported as “non-competitive”. For the same molecule, the figures for the concentration for half-maximal inhibition (IC50) (in test [1] (IC50 PTP1B); against Yeast α-glucosidase) were 50.6 ± 1.86 µM and > 150 µM, respectively. Moreover, the “effect on insulin resistance” value in test [4] was “improved insulin resistance”. In addition, the anti-diabetic activity entry in test [5] is on record as “anti-diabetic activity”.
